In patent US20160271149A1, “[…] COMPOUNDS THAT […] PROTEIN ARGININE […] ACTIVITY FOR REDUCING TUMOR CELL PROLIFERATION” (Epinova Therapeutics Corp., priority 2015, published 2016):
“And” between values parts separate entries of the source, which are not always exact repeats. Identical values can stand only once. Counter-ions that a name gives are not always drawn.

Legend:
PRMTs = test: Screen against protein arginine methyltransferases, summary statement
Procedure: (§1) A 10 mM DMSO stock solution of each test compound was prepared.
(§2) Compounds were tested in a single-dose mode, in duplicate at the following concentrations.
(§3) Reactions were carried out at 1 μM SAM. The no inhibitor control was set as 100% activity).

PRMT5 = PRMT5 (Homo sapiens, UniProt O14744); test: Methyltransferase activity screen, PRMT5, substrate Histone H2A; conditions: for % Enzyme Activity (relative to DMSO controls): PRMT5, substrate Histone H2A, single-dose mode, duplicate (Data 1, Data 2), 1 μM SAM, 100 μM; for inhibition of PRMT5: at a concentration of 100 μM
Sequence of PRMT5 (O14744 whole entry): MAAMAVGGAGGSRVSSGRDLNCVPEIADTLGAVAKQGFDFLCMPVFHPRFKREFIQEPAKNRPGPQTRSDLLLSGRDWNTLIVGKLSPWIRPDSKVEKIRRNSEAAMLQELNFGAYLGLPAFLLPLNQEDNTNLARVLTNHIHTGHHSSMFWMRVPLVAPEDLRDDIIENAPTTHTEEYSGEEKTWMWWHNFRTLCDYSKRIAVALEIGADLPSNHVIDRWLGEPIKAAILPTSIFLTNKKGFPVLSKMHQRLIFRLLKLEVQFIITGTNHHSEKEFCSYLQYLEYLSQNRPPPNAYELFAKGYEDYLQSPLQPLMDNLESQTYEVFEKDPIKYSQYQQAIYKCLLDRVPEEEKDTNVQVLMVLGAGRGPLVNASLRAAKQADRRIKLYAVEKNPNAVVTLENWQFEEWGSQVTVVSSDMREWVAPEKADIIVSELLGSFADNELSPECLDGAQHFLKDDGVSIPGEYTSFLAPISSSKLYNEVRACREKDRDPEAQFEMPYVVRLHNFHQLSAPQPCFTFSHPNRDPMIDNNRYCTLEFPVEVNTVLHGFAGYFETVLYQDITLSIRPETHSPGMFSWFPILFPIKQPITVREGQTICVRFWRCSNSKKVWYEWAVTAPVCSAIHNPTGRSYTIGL
Procedure: as §1, §2, §3

LXR and FXR = conditions: cited from earlier work
PRMT6 = PRMT6 (Homo sapiens, UniProt Q96LA8); test: Methyltransferase activity screen, PRMT6, substrate Histone H3; conditions: for % Enzyme Activity (relative to DMSO controls): PRMT6, substrate Histone H3, single-dose mode, duplicate (Data 1, Data 2), 1 μM SAM, 100 μM
Sequence of PRMT6 (Q96LA8 whole entry): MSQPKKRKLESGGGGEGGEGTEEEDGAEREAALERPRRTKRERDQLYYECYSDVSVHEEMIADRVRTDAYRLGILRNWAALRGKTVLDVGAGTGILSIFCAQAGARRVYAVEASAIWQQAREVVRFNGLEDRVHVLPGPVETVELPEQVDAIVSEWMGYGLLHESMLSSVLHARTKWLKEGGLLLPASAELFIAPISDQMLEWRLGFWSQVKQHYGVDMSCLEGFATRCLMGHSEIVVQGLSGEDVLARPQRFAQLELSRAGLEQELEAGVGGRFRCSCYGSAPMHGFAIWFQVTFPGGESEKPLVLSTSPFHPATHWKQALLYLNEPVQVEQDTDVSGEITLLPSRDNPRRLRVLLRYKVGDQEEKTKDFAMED
Procedure: as §1, §2, §3

PRMT5/MEP50 = PRMT5/MEP50 (Homo sapiens, UniProt O14744); test: Methyltransferase activity screen and profiling, PRMT5/MEP50, substrate Histone H2A; conditions: for % Enzyme Activity (relative to DMSO controls): PRMT5/MEP50, substrate Histone H2A, single-dose mode, duplicate (Data 1, Data 2), 1 μM SAM, 100 μM; for % Activity / Raw data: PRMT5/MEP50 profiling; for HILLSLOPE: Table 4, PRMT5/MEP50 dose-response curve fit
Sequence of PRMT5/MEP50 (O14744 whole entry): as the sequence (O14744 whole entry) above
Sequence of PRMT5/MEP50 (Q9BQA1 whole entry partner): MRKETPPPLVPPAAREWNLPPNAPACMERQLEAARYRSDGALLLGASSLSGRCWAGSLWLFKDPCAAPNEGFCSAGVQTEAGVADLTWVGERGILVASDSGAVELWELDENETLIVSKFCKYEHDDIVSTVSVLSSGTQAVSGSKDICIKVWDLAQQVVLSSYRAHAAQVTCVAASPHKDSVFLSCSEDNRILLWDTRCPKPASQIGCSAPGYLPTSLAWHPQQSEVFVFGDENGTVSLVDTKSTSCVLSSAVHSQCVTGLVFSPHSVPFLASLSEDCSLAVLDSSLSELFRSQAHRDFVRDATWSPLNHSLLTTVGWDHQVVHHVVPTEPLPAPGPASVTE
Procedure: as §1, §2, §3

PRMT1 = PRMT1 (Homo sapiens, UniProt Q99873); test: Methyltransferase activity screen, PRMT1, substrate Histone H4; conditions: single-dose mode, duplicate (Data 1, Data 2), 1 μM SAM, 100 μM
Sequence of PRMT1 (Q99873 whole entry, canonical isoform): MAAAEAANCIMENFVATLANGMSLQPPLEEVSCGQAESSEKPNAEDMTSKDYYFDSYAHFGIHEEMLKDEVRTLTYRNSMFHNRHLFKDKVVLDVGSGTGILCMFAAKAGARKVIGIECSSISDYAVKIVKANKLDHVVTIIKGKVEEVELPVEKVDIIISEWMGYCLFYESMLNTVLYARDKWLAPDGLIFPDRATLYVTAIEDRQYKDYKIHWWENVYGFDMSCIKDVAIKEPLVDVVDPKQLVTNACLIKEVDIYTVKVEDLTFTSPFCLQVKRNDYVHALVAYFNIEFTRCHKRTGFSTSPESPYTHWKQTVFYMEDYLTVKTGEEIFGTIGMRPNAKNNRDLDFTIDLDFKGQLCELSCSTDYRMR
Procedure: as §1, §2, §3

LXRα = biological target: T1, LXRα (Homo sapiens, UniProt Q13133); conditions: human isoform; cited from earlier work
T1 sequence (Q13133 1-447): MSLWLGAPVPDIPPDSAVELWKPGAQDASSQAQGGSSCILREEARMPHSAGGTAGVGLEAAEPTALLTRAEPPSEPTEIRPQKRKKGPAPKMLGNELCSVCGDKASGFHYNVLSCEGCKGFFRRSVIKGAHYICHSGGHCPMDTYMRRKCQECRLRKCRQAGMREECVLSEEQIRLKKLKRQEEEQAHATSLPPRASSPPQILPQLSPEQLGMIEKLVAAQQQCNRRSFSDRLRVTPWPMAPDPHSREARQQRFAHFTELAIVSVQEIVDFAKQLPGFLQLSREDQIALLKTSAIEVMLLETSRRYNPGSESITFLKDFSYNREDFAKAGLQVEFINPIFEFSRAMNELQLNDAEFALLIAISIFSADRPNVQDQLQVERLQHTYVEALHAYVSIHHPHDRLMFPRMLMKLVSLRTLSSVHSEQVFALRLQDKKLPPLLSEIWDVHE

human PPARα = biological target: T2, human PPARα (Homo sapiens, UniProt Q07869); conditions: at 1 μM; COS-1 cells, human PPARα and RXRα; cited from earlier work
T2 sequence (Q07869 1-468): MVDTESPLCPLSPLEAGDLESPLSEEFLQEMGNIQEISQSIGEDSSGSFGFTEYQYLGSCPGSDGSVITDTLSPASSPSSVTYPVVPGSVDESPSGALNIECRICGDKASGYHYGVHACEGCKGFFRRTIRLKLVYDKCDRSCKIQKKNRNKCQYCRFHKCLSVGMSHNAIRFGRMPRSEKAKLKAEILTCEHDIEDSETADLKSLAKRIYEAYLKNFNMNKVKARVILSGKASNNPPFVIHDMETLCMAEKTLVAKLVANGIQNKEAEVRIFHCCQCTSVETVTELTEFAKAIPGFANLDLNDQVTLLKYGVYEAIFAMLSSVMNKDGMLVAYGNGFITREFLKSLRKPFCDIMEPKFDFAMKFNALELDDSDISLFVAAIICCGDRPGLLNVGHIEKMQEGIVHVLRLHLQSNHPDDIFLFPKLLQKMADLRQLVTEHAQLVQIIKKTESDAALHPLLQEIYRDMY
T2 sequence (P19793 1-462 partner): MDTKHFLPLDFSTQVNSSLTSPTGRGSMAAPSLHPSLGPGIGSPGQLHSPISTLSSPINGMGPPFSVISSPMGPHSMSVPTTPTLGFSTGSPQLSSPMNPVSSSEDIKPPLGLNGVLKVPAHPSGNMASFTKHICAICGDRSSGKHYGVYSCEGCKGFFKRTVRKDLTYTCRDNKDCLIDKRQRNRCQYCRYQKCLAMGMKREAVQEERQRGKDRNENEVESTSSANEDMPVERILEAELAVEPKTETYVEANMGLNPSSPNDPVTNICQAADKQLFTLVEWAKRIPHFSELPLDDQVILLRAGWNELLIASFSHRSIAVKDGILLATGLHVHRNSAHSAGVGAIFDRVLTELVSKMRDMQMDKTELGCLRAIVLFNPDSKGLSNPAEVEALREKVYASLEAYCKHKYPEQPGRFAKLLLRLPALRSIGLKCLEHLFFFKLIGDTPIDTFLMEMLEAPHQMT

TGR5 = biological target: T3, TGR5 (Homo sapiens, UniProt Q8TDU6); conditions: cited from earlier work
T3 sequence (Q8TDU6 1-330): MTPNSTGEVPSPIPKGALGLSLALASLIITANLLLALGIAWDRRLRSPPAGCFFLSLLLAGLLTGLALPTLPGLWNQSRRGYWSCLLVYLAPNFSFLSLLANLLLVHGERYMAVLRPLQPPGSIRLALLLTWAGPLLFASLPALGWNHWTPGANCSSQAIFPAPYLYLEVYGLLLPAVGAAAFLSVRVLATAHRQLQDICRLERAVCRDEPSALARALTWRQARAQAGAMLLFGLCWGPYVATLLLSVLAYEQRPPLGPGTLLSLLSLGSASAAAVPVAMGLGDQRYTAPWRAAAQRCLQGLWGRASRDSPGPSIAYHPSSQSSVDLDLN

Structure (SMILES) | % Activity (PRMT5/MEP50; Conc. 1.00E−04 M) | Raw data (PRMT5/MEP50; Conc. 1.00E−04 M) | % Activity (PRMT5/MEP50; Conc. 1.11E−05 M) | Raw data (PRMT5/MEP50; Conc. 1.11E−05 M) | % Activity (PRMT5/MEP50; Conc. 1.23E−06 M) | Raw data (PRMT5/MEP50; Conc. 1.23E−06 M) | % Activity (PRMT5/MEP50; Conc. 1.37E−07 M) | Raw data (PRMT5/MEP50; Conc. 1.37E−07 M) | % Activity (PRMT5/MEP50; Conc. 1.52E−08 M) | Raw data (PRMT5/MEP50; Conc. 1.52E−08 M) | % Activity (PRMT5/MEP50; Conc. 3.33E−05 M) | Raw data (PRMT5/MEP50; Conc. 3.33E−05 M) | % Activity (PRMT5/MEP50; Conc. 3.70E−06 M) | Raw data (PRMT5/MEP50; Conc. 3.70E−06 M) | % Activity (PRMT5/MEP50; Conc. 4.12E−07 M) | Raw data (PRMT5/MEP50; Conc. 4.12E−07 M) | % Activity (PRMT5/MEP50; Conc. 4.57E−08 M) | Raw data (PRMT5/MEP50; Conc. 4.57E−08 M) | % Activity (PRMT5/MEP50; Conc. 5.08E−09 M) | Raw data (PRMT5/MEP50; Conc. 5.08E−09 M) | other results
C[C@H](CCC(=O)O)[C@H]1CC[C@H]2[C@@H]3[C@H](O)C[C@@H]4C[C@H](O)CC[C@]4(C)[C@H]3CC[C@]12C [Chenodeoxycholic acid, 3α, 7α-dihydroxy-5β-cholan-24-oic acid] | – | – | – | – | – | – | – | – | – | – | – | – | – | – | – | – | – | – | – | – | direct inhibitory effect on PRMTs (PRMTs): no direct inhibitory effect
Cl.O=C(O)Cc1cccc(OCCCN(Cc2cccc(C(F)(F)F)c2Cl)CC(c2ccccc2)c2ccccc2)c1 [GW 3965, 3-[3-[[[2-chloro-3-(trifluoromethyl)phenyl]methyl](2,2-diphenylethyl)amino]propoxy]-benzeneacetic acid, monohydrochloride] | 1.47% | 6431 | 124.34% | 544281 | 105.86% | 463366 | 103.73% | 454053 | 95.29% | 417100 | 137.65% | 602561 | 112.86% | 494019 | 103.66% | 453763 | 99.34% | 434862 | 98.94% | 433085 | % Enzyme Activity (relative to DMSO controls) (PRMT5; monohydrochloride): 90.29% and 97.35%; affinity for LXR and FXR (LXR and FXR): nanomolar affinity; % Enzyme Activity (relative to DMSO controls) (PRMT6; monohydrochloride): 83.29% and 103.66%; IC50 (PRMT5/MEP50): 84.2 µM; % Enzyme Activity (relative to DMSO controls) (PRMT5/MEP50; monohydrochloride): 1.54% and 1.23%; HILLSLOPE (PRMT5/MEP50): −24.99; % Enzyme Activity (relative to DMSO controls) (PRMT1; monohydrochloride): 6.93% and 4.55%; EC50 (LXRα): 0.29 µM
CC(C)c1onc(-c2c(Cl)cccc2Cl)c1COc1ccc(C=Cc2cccc(C(=O)O)c2)c(Cl)c1 [GW 4064, 3-[2-[2-chloro-4-[[3-(2,6-dichlorophenyl)-5-(1-methylethyl)-4-isoxazolyl]methoxy]phenyl]ethenyl]-benzoic acid] | 5.70% | 24954 | 117.75% | 515444 | 105.80% | 463109 | 99.86% | 437127 | 96.95% | 424387 | 120.51% | 527528 | 103.51% | 453113 | 99.48% | 435450 | 97.26% | 425743 | 94.60% | 414110 | affinity for LXR and FXR (LXR and FXR): nanomolar affinity; IC50 (PRMT5/MEP50): 79.2 µM; HILLSLOPE (PRMT5/MEP50): −12.23
CC[C@H]1[C@@H](O)[C@@H]2[C@H](CC[C@]3(C)[C@@H]([C@H](C)CCC(=O)O)CC[C@@H]23)[C@@]2(C)CC[C@@H](O)C[C@@H]12 [INT-747, 6α-Ethyl-chenodeoxycholic acid] | – | – | – | – | – | – | – | – | – | – | – | – | – | – | – | – | – | – | – | – | % Enzyme Activity (relative to DMSO controls) (PRMT5): 106.35% and 105.51%; % Enzyme Activity (relative to DMSO controls) (PRMT6): 312.24% and 288.93%; % Enzyme Activity (relative to DMSO controls) (PRMT5/MEP50): 95.73% and 93.91%; % Enzyme Activity (relative to DMSO controls) (PRMT1): 112.72% and 115.42%
CN(C)C(=N)N=C(N)N [Metformin, N, N-dimethyl-imidodicarbonimidic diamide, monohydrochloride] | – | – | – | – | – | – | – | – | – | – | – | – | – | – | – | – | – | – | – | – | % Enzyme Activity (relative to DMSO controls) (PRMT5; monohydrochloride): 98.74% and 84.85%; % Enzyme Activity (relative to DMSO controls) (PRMT6; monohydrochloride): 90.66% and 90.30%; % Enzyme Activity (relative to DMSO controls) (PRMT5/MEP50; monohydrochloride): 88.20% and 82.84%; % Enzyme Activity (relative to DMSO controls) (PRMT1; monohydrochloride): 100.50% and 101.26%
CCc1ccc(CCOc2ccc(CC3SC(=O)NC3=O)cc2)nc1 (stereo not shown) [Pioglitazone, 5-[[4-[2-(5-ethyl-2-pyridinyl)ethoxy]phenyl]methyl]-2,4-thiazolidinedione] | – | – | – | – | – | – | – | – | – | – | – | – | – | – | – | – | – | – | – | – | % Enzyme Activity (relative to DMSO controls) (PRMT5): 18.95% and 18.46%; inhibition of PRMT5 (PRMT5): mild inhibitor; % Enzyme Activity (relative to DMSO controls) (PRMT6): 93.46% and 102.78%; % Enzyme Activity (relative to DMSO controls) (PRMT5/MEP50): 43.68% and 45.13%; activation of PPARα (human PPARα): low level activation; % Enzyme Activity (relative to DMSO controls) (PRMT1): 110.44% and 99.23%
CN(CCOc1ccc(CC2SC(=O)NC2=O)cc1)c1ccccn1 (stereo not shown) [Rosiglitazone, 5-[[4-[2-(methyl-2-pyridinylamino)ethoxy]phenyl]methyl]-2,4-thiazolidinedione] | – | – | – | – | – | – | – | – | – | – | – | – | – | – | – | – | – | – | – | – | inhibition of PRMT5 (PRMT5): no effect
Nc1ncnc2c1ncn2[C@@H]1O[C@H](CSCC[C@H](N)C(=O)O)[C@@H](O)[C@H]1O [SAH, S-(5′-Adenosyl)-L-homocysteine] | 5.40% | 23637 | 23.32% | 102087 | 61.44% | 268933 | 87.83% | 384445 | 90.12% | 394475 | 11.73% | 51347 | 42.02% | 183946 | 72.99% | 319517 | 96.88% | 424069 | 91.72% | 401476 | IC50 (PRMT6): 0.623 µM; HILLSLOPE (PRMT5/MEP50): −0.78
Cc1onc(-c2ccccc2Cl)c1C(=O)N(C)c1ccc(Cl)cc1 [TGR5 agonist, 3-(2-chlorophenyl)-N-(4-chlorophenyl)-N,5-dimethyl-4-isoxazolecarboxamide] | – | – | – | – | – | – | – | – | – | – | – | – | – | – | – | – | – | – | – | – | % Enzyme Activity (relative to DMSO controls) (PRMT5): 84.41% and 87.02%; % Enzyme Activity (relative to DMSO controls) (PRMT6): 70.12% and 73.79%; pEC50, activator of TGR5 (TGR5): 6.8-7.5; % Enzyme Activity (relative to DMSO controls) (PRMT5/MEP50): 90.97% and 82.32%; % Enzyme Activity (relative to DMSO controls) (PRMT1): 100.02% and 92.67%
